# Assay results taken from PubChem BioAssay (NCI).
#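 48-hour exposure; five concentrations; linearly interpolated endpoints. Here, GI50 denotes the concentration required for 50% inhibition of growth. TGI: total growth inhibition.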
# Columns and labels:
# Experiment in all cases: inhibition of tumour cell growth, NCI panel, 48 h
# SF-268 CNS = test system: SF-268 CNS
# MDA-MB-435 = test system: MDA-MB-435
# SNB-75 CNS = test system: SNB-75 CNS
# M14 melanoma = test system: M14 melanoma
# DU-145 prostate = test system: DU-145 prostate
# U251 CNS = test system: U251 CNS
# SF-539 CNS = test system: SF-539 CNS
# RXF 393 renal = test system: RXF 393 renal
# 786-0 renal = test system: 786-0 renal
# SW-620 colon = test system: SW-620 colon
# SR leukemia = test system: SR leukemia
# HCT-15 colon = test system: HCT-15 colon
# SN12C renal = test system: SN12C renal
# HL-60(TB) leukemia = test system: HL-60(TB) leukemia
# NCI/ADR-RES ovarian = test system: NCI/ADR-RES ovarian
# HCT-116 colon = test system: HCT-116 colon
# OVCAR-4 ovarian = test system: OVCAR-4 ovarian
# A498 renal = test system: A498 renal
# SF-295 CNS = test system: SF-295 CNS
# TK-10 renal = test system: TK-10 renal
# SK-MEL-5 melanoma = test system: SK-MEL-5 melanoma
# HT29 colon = test system: HT29 colon
# CAKI-1 renal = test system: CAKI-1 renal
# NCI-H460 lung = test system: NCI-H460 lung
# SK-MEL-28 melanoma = test system: SK-MEL-28 melanoma
# HS 578T breast = test system: HS 578T breast
# SK-MEL-2 melanoma = test system: SK-MEL-2 melanoma
# PC-3 prostate = test system: PC-3 prostate
# COLO 205 colon = test system: COLO 205 colon
# SNB-19 CNS = test system: SNB-19 CNS
# MDA-MB-231 breast = test system: MDA-MB-231 breast
# MCF7 breast = test system: MCF7 breast
# ACHN renal = test system: ACHN renal
# MALME-3M melanoma = test system: MALME-3M melanoma
# UACC-257 melanoma = test system: UACC-257 melanoma
# CCRF-CEM leukemia = test system: CCRF-CEM leukemia
# HOP-92 NSCLC = test system: HOP-92 NSCLC
# T-47D breast = test system: T-47D breast
# OVCAR-8 ovarian = test system: OVCAR-8 ovarian
# OVCAR-5 ovarian = test system: OVCAR-5 ovarian
# HOP-62 NSCLC = test system: HOP-62 NSCLC
# IGROV1 ovarian = test system: IGROV1 ovarian
# LOX IMVI melanoma = test system: LOX IMVI melanoma
# HCC-2998 colon = test system: HCC-2998 colon
# NCI-H23 lung = test system: NCI-H23 lung
# RPMI-8226 leukemia = test system: RPMI-8226 leukemia
# UO-31 renal = test system: UO-31 renal
# OVCAR-3 ovarian = test system: OVCAR-3 ovarian
# KM12 colon = test system: KM12 colon
# K-562 leukemia = test system: K-562 leukemia
# NCI-H226 lung = test system: NCI-H226 lung
# SK-OV-3 ovarian = test system: SK-OV-3 ovarian
# EKVX NSCLC = test system: EKVX NSCLC
# MOLT-4 leukemia = test system: MOLT-4 leukemia
# NCI-H522 lung = test system: NCI-H522 lung
# BT-549 breast = test system: BT-549 breast
structure (smiles),measurement,setting,value
COc1cccc2c1C(=O)c1c(O)c3c(c(O)c1C2=O)CC(O)(/C(C)=N/NC(=O)CCCCC(=O)N/N=C(\C)C1(O)Cc2c(O)c4c(c(O)c2C(OC2CC(N)C(O)C(C)O2)C1)C(=O)c1c(OC)cccc1C4=O)CC3OC1CC(N)C(O)C(C)O1 (centres undefined),GI50,SF-268 CNS,147 nM
same,TGI,SF-268 CNS,4580 nM
same,GI50,MDA-MB-435,324 nM
same,TGI,MDA-MB-435,2010 nM
same,GI50,SNB-75 CNS,118 nM
same,TGI,SNB-75 CNS,867 nM
same,GI50,M14 melanoma,225 nM
same,TGI,M14 melanoma,1320 nM
same,GI50,DU-145 prostate,163 nM
same,TGI,DU-145 prostate,1930 nM
same,GI50,U251 CNS,147 nM
same,TGI,U251 CNS,> 23700 nM
same,GI50,SF-539 CNS,121 nM
same,TGI,SF-539 CNS,465 nM
same,GI50,RXF 393 renal,209 nM
same,TGI,RXF 393 renal,831 nM
same,GI50,786-0 renal,185 nM
same,TGI,786-0 renal,1940 nM
same,GI50,SW-620 colon,147 nM
same,TGI,SW-620 colon,33400 nM
same,GI50,SR leukemia,8.27 nM
same,TGI,SR leukemia,36.5 nM
same,GI50,HCT-15 colon,2890 nM
same,TGI,HCT-15 colon,> 50000 nM
same,GI50,SN12C renal,178 nM
same,TGI,SN12C renal,> 50000 nM
same,GI50,HL-60(TB) leukemia,159 nM
same,TGI,HL-60(TB) leukemia,2380 nM
same,GI50,NCI/ADR-RES ovarian,17900 nM
same,TGI,NCI/ADR-RES ovarian,> 50000 nM
same,GI50,HCT-116 colon,116 nM
same,GI50,OVCAR-4 ovarian,401 nM
same,TGI,OVCAR-4 ovarian,8430 nM
same,GI50,A498 renal,567 nM
same,TGI,A498 renal,1340 nM
same,GI50,SF-295 CNS,125 nM
same,TGI,SF-295 CNS,689 nM
same,GI50,TK-10 renal,716 nM
same,TGI,TK-10 renal,> 14300 nM
same,GI50,SK-MEL-5 melanoma,97.4 nM
same,TGI,SK-MEL-5 melanoma,584 nM
same,GI50,HT29 colon,181 nM
same,TGI,HT29 colon,> 50000 nM
same,GI50,CAKI-1 renal,265 nM
same,TGI,CAKI-1 renal,3230 nM
same,GI50,NCI-H460 lung,45.6 nM
same,TGI,NCI-H460 lung,10900 nM
same,GI50,SK-MEL-28 melanoma,473 nM
same,TGI,SK-MEL-28 melanoma,1620 nM
same,GI50,HS 578T breast,263 nM
same,TGI,HS 578T breast,2830 nM
same,GI50,SK-MEL-2 melanoma,585 nM
same,TGI,SK-MEL-2 melanoma,1790 nM
same,GI50,PC-3 prostate,597 nM
same,TGI,PC-3 prostate,9180 nM
same,GI50,COLO 205 colon,87.7 nM
same,TGI,COLO 205 colon,440 nM
same,GI50,SNB-19 CNS,164 nM
same,TGI,SNB-19 CNS,1570 nM
same,GI50,MDA-MB-231 breast,749 nM
same,TGI,MDA-MB-231 breast,> 50000 nM
same,GI50,MCF7 breast,45.9 nM
same,TGI,MCF7 breast,> 50000 nM
same,GI50,ACHN renal,188 nM
same,TGI,ACHN renal,1690 nM
same,GI50,MALME-3M melanoma,146 nM
same,TGI,MALME-3M melanoma,973 nM
same,GI50,UACC-257 melanoma,554 nM
same,TGI,UACC-257 melanoma,2370 nM
same,GI50,CCRF-CEM leukemia,207 nM
same,TGI,CCRF-CEM leukemia,18400 nM
same,GI50,HOP-92 NSCLC,137 nM
same,TGI,HOP-92 NSCLC,2450 nM
same,GI50,T-47D breast,93.1 nM
same,TGI,T-47D breast,2070 nM
same,GI50,OVCAR-8 ovarian,215 nM
same,TGI,OVCAR-8 ovarian,> 50000 nM
same,GI50,OVCAR-5 ovarian,862 nM
same,TGI,OVCAR-5 ovarian,> 50000 nM
same,GI50,HOP-62 NSCLC,218 nM
same,TGI,HOP-62 NSCLC,1930 nM
same,GI50,IGROV1 ovarian,906 nM
same,TGI,IGROV1 ovarian,> 21000 nM
same,GI50,LOX IMVI melanoma,80.3 nM
same,GI50,HCC-2998 colon,318 nM
same,TGI,HCC-2998 colon,1140 nM
same,GI50,NCI-H23 lung,173 nM
same,TGI,NCI-H23 lung,1120 nM
same,GI50,RPMI-8226 leukemia,139 nM
same,TGI,RPMI-8226 leukemia,2630 nM
same,GI50,UO-31 renal,1340 nM
same,TGI,UO-31 renal,> 22000 nM
same,GI50,OVCAR-3 ovarian,200 nM
same,TGI,OVCAR-3 ovarian,2750 nM
same,GI50,KM12 colon,361 nM
same,TGI,KM12 colon,6120 nM
same,GI50,K-562 leukemia,222 nM
same,TGI,K-562 leukemia,> 23300 nM
same,GI50,NCI-H226 lung,159 nM
same,TGI,NCI-H226 lung,1230 nM
same,GI50,SK-OV-3 ovarian,227 nM
same,GI50,EKVX NSCLC,418 nM
same,TGI,EKVX NSCLC,21000 nM
same,GI50,MOLT-4 leukemia,60.5 nM
same,TGI,MOLT-4 leukemia,694 nM
same,GI50,NCI-H522 lung,108 nM
same,TGI,NCI-H522 lung,811 nM
same,GI50,BT-549 breast,511 nM
same,TGI,BT-549 breast,4350 nM
